Where “and” joins values, the source holds several entries; their conditions need not be identical. Identical values can stand only once.
How the values were obtained:
[1] = tested on: GD3 antibody 4F6; assay: ELISA of immobilized MAP-form GD3-mimetic peptides with anti-GD3 antibody (Example 3(3)); assay type: binding, mouse; conditions: for ELISA absorbance, Anti-GD3 antibody: MAP form 100 ng/well
Experimental: A 0.1M NaHCO3 solution containing each of the phage clones obtained in Example 1 (10^11, 10^10, or 10^9 titer/100 μL) was added to the wells of a 96-well microtiter plate (product of Nunc), for immobilization of the phage clones at room temperature for one hour. The supernatant was removed, then the wells were subjected to blocking by use of a blocking solution ([…]; TBS containing 1% BSA, 0.1% skim milk, and 0.02% Tween 20; pH 7.5) at 37° C. for four hours.
The supernatant was removed, then GD3 antibody 4F6 (100 μL), serving as a primary antibody, was added to each well for reaction under shaking at room temperature for two hours. After completion of reaction, the supernatant was removed, then the wells were washed six times with a washing solution (400 μL for each well, TBS containing 0.05% Tween 20). Subsequently, a secondary antibody (anti-mouse IgG-HRP, product of Santa Cruz Biotechnology, catalogue No. SC-2031, Lot. No. C089) which was diluted 5,000-fold by use of a blocking solution prepared in advance was added to the wells (100 μL to each well) for reaction under shaking at room temperature for one hour. After completion of reaction, the wells were washed four times with a washing solution (400 μL for each well), then a detection reagent (TMB Microwell; product of KPL, Catalogue No. 50-76-04, Lot. No. WF075) was added to the wells (100 μL to each well), and the mixture was allowed to stand for five minutes at room temperature.
1N-Hydrochloric acid (100 μL) was added to each well for stopping the reaction. Absorbance of each well was measured at 450 nm and 620 nm, and “OD450-OD620” was calculated. A Multiscan (product of Labosystems) was used in measurement of absorbance. A well in which phages had not been immobilized served as a blank, and the absorbance of each well was determined by subtracting the blank value from the “as-measured” value.
(§1) A 0.1M NaHCO3 solution containing a GD3-mimetic peptide of the invention in the above MAP form (100 ng/100 μL) was added to the wells of a 96-well micro-titer plate, for immobilization at room temperature for one hour. Subsequently, in a manner similar to the ELISA method employed in Example 2, binding affinity of the GD3-mimetic peptide to GD3 antibody 4F6 was investigated.
(§2) Anti-GD2 antibody and anti-OAcGD3 antibody (Cerato, E., et al., Hybridoma, 16(4), 307-316 (1997)) were used as controls (these antibodies were kindly provided by from Dr. Portoukalian).

[2] = tested on: Anti-GD2 antibody; assay: ELISA of immobilized MAP-form peptides with control anti-GD2 antibody; assay type: binding; conditions: MAP form 100 ng/well
Experimental: as §1, §2

[3] = tested on: Anti-OAcGD3 antibody; assay: ELISA of immobilized MAP-form peptides with control anti-OAcGD3 antibody; assay type: binding; conditions: MAP form 100 ng/well
Experimental: as §1, §2

[4] = Titer against GD3 (ELISA) of antiserum from mice immunized with MAP peptides (Example 4); assay type: in vivo, mice (C57BL/6); conditions: individual mice
Experimental: Four species of GD3-mimetic peptide (MAP) obtained in Example 3 (2) was dissolved in PBS so as to attain a concentration of 200 μg/mL. The solution was added to Freund's complete (or incomplete) adjuvant (1:1, by volume), to thereby prepare an emulsion.
Eight mice (C57BL/6) were immunized by subcutaneous administration of the above emulsion (0.2 mL/mouse, in one administration, […]). Administration was performed every two weeks (for the second and subsequent administrations, Freund's incomplete adjuvant was used). After one week following respective administrations, blood was collected from the tail of each mouse, to thereby yield antiserum.
The antiserum obtained directly after the first administration will be referred to “1-st,” that obtained after the second administration will be referred to “2-nd,” and that obtained after the third administration will be referred to “3-rd.”
The titer, against GD3, of each of the antiserum samples (3×8 mice=24 samples) obtained in the (1) above was measured through ELISA as described below.
The thus-obtained purified GD3 was dissolved in methanol, whereby a GD3 solution having a concentration of 10 μg/mL was prepared. The GD3 solution was added to the wells of a 96-well micro-titer plate in amounts of 10 μL per well (which corresponds to 100 ng GD3 per well), and methanol was evaporated. Subsequently, a blocking solution (TBS supplemented with 1% BSA) was added to the wells in amounts of 50 μL per well, for blocking at 37° C. for 4 hours.
The supernatant was discarded. Each of the antiserum samples obtained in (1) above was diluted 100-fold, 400-fold, or 1,600 fold with the above-mentioned blocking solution. The diluted antiserum (50 μL) was added to each well for reaction at 4° C. overnight. The well was washed six times with TBS, and thereafter, HRP-labeled […] diluted 5,000-fold with the blocking solution was added (50 μL per well) for reaction for 2 hours at room temperature. The well was washed four times with TBS, and thereafter, enzymatic activity (peroxidase) of the well was detected with TMB solution (50 μL). The reaction was stopped with 1N HCl (50 μL), and the value corresponding to “420 nm-620 nm” was calculated.
A control sample was prepared as follows. […] The synthesized peptide was administered to a mouse for immunization, and the obtained antiserum served as a control sample. The titer of the control sample was obtained in a manner similar to that described above. (However, the number of provided mice was five, and only a 100-fold diluted solution was used.) This control peptide sample was also used in the form of MAP as described above.

[5] = antiserum 1st (after first administration), dilution factor 1/100, MAP 5 μg/mouse s.c.
[6] = antiserum 1st, dilution factor 1/400
[7] = antiserum 1st, dilution factor 1/1600
[8] = antiserum 2nd (after second administration), dilution factor 1/100
[9] = antiserum 2nd, dilution factor 1/400
[10] = antiserum 2nd, dilution factor 1/1600
[11] = antiserum 3rd (after third administration), dilution factor 1/100
[12] = antiserum 3rd, dilution factor 1/400
[13] = antiserum 3rd, dilution factor 1/1600

In the case of “PHFDSLLYPCELLGC (PHFDSLLYPCQLLGC) [GD3R2, tested as phage clone, MAP form or peptide]”, the “ELISA absorbance, Anti-GD3 antibody” value ([1]; Serum % 12.50%) is reported as 0.055, the “ELISA absorbance, Anti-GD3 antibody” value ([1]; Serum % 25%) is reported as 0.105 and the “ELISA absorbance, Anti-GD3 antibody” value ([1]; Serum % 50%) is reported as 0.159. The “ELISA absorbance, Anti-GD3 antibody” value ([1]; Serum % 100%) was 0.264, the “ELISA absorbance, Anti-GD2 antibody” value ([2]; Serum % 12.50%) was 0.052 and the “ELISA absorbance, Anti-GD2 antibody” value ([2]; Serum % 25%) was 0.071. For the same sequence, the “ELISA absorbance, Anti-GD2 antibody” value ([2]; Serum % 50%) was 0.079, the “ELISA absorbance, Anti-GD2 antibody” value ([2]; Serum % 100%) was 0.132 and the “ELISA absorbance, Anti-OAcGD3 antibody” value ([3]; Serum % 12.50%) was 0.021. For the same sequence, the “ELISA absorbance, Anti-OAcGD3 antibody” value ([3]; Serum % 25%) was 0.023, the “ELISA absorbance, Anti-OAcGD3 antibody” value ([3]; Serum % 50%) was 0.027 and the “ELISA absorbance, Anti-OAcGD3 antibody” value ([3]; Serum % 100%) was 0.038. The “reactivity of antiserum with GD3 (ELISA absorbance)” value (from here on “reactivity of antiserum with GD3”) [4, 5] was 0.042 and 0.114 and 0.087 and 0.155 and 0.076 and 0.084 and 0.316 and 0.062, the “reactivity of antiserum with GD3” value [4, 6] was 0.031 and 0.068 and 0.05 and 0.078 and 0.055 and 0.044 and 0.252 and 0.035 and the “reactivity of antiserum with GD3” value [4, 7] was 0.053 and 0.028 (2×) and 0.045 and 0.014 and 0.034 and 0.179 and 0.022. For the same sequence, the “reactivity of antiserum with GD3” value [4, 8] was 0.183 and 0.135 and 0.142 and 0.131 and 0.115 and 0.072 and 0.069 and 0.34, the “reactivity of antiserum with GD3” value [4, 9] was 0.078 and 0.049 and 0.071 and 0.034 and 0.091 and 0.039 and 0.047 and 0.241 and the “reactivity of antiserum with GD3” value [4, 10] was 0.039 and 0.035 and 0.025 and 0.016 (2×) and 0.033 and 0.034 and 0.13. The “reactivity of antiserum with GD3” value [4, 11] was 0.08 and 0.053 and 0.057 and 0.184 and 0.09 and 0.05 and 0.098 and 0.113, the “reactivity of antiserum with GD3” value [4, 12] was 0.075 and 0.053 and 0.084 and 0.161 and 0.089 and 0.059 and 0.086 and 0.099 and the “reactivity of antiserum with GD3” value [4, 13] was 0.023 (2×) and 0.014 and 0.008 and 0.053 and 0.028 and 0.012 and 0.036.

For “GLAPPDYAERFELLS [GD3R3, tested as phage clone, MAP form or peptide]”, the “binding to the anti-GD3 antibody” value [1] was “stronger bonding to the anti-GD3 antibody”, the “ELISA absorbance, Anti-GD3 antibody” value ([1]; Serum % 12.50%) was 0.176 and the “ELISA absorbance, Anti-GD3 antibody” value ([1]; Serum % 25%) was 0.237. The “ELISA absorbance, Anti-GD3 antibody” value ([1]; Serum % 50%) was 0.357, the “ELISA absorbance, Anti-GD3 antibody” value ([1]; Serum % 100%) was 0.483 and the “ELISA absorbance, Anti-GD2 antibody” value ([2]; Serum % 12.50%) was 0.077. For the same sequence, the “ELISA absorbance, Anti-GD2 antibody” value ([2]; Serum % 25%) was 0.118, the “ELISA absorbance, Anti-GD2 antibody” value ([2]; Serum % 50%) was 0.036 and the “ELISA absorbance, Anti-GD2 antibody” value ([2]; Serum % 100%) was 0.191. The “ELISA absorbance, Anti-OAcGD3 antibody” value ([3]; Serum % 12.50%) was 0.031, the “ELISA absorbance, Anti-OAcGD3 antibody” value ([3]; Serum % 25%) was 0.026 and the “ELISA absorbance, Anti-OAcGD3 antibody” value ([3]; Serum % 50%) was 0.031. The “ELISA absorbance, Anti-OAcGD3 antibody” value ([3]; Serum % 100%) was 0.044, the “reactivity of antiserum with GD3” value [4, 5] was 0.105 and 0.062 (2×) and 0.098 and 0.051 and 0.04 and 0.165 and 0.169 and the “reactivity of antiserum with GD3” value [4, 6] was 0.077 and 0.004 and 0.048 and 0.016 and 0.026 and 0.067 and 0.071 and 0.083. The “reactivity of antiserum with GD3” value [4, 7] was 0.009 and 0.016 and 0.006 and 0.023 and 0.003 and 0.031 and 0.015 and 0.017, the “reactivity of antiserum with GD3” value [4, 8] was 0.116 and 0.098 and 0.08 (2×) and 0.165 and 0.132 and 0.135 and 0.179 and the “reactivity of antiserum with GD3” value [4, 9] was 0.078 and 0.079 and 0.112 and 0.118 and 0.088 (2×) and 0.076 and 0.054. The “reactivity of antiserum with GD3” value [4, 10] was 0.025 (2×) and 0.034 and 0.022 and 0.027 and 0.018 and 0.07 and 0.024, the “reactivity of antiserum with GD3” value [4, 11] was 0.126 and 0.143 and 0.069 and 0.189 (2×) and 0.073 and 0.098 and 0.047 and the “reactivity of antiserum with GD3” value [4, 12] was 0.039 and 0.032 and 0.028 and 0.073 and 0.033 and 0.03 and 0.023 and 0.022. The “reactivity of antiserum with GD3” value [4, 13] was 0.027 and 0.026 and 0.018 (3×) and 0.017 and 0.013 and 0.016.

With “LAPPRPRSELVFLSV (LAPPRPRSQLVFLSV) [GD3R1, tested as phage clone, MAP form or peptide]” the “ELISA absorbance, Anti-GD3 antibody” value ([1]; Serum % 12.50%) was 0.083, the “ELISA absorbance, Anti-GD3 antibody” value ([1]; Serum % 25%) was 0.127 and the “ELISA absorbance, Anti-GD3 antibody” value ([1]; Serum % 50%) was 0.137. The “ELISA absorbance, Anti-GD3 antibody” value ([1]; Serum % 100%) was 0.263, the “ELISA absorbance, Anti-GD2 antibody” value ([2]; Serum % 12.50%) was 0.065 and the “ELISA absorbance, Anti-GD2 antibody” value ([2]; Serum % 25%) was 0.067. For the same sequence, the “ELISA absorbance, Anti-GD2 antibody” value ([2]; Serum % 50%) was 0.095, the “ELISA absorbance, Anti-GD2 antibody” value ([2]; Serum % 100%) was 0.123 and the “ELISA absorbance, Anti-OAcGD3 antibody” value ([3]; Serum % 12.50%) was 0.04. For the same sequence, the “ELISA absorbance, Anti-OAcGD3 antibody” value ([3]; Serum % 25%) was 0.041, the “ELISA absorbance, Anti-OAcGD3 antibody” value ([3]; Serum % 50%) was 0.046 and the “ELISA absorbance, Anti-OAcGD3 antibody” value ([3]; Serum % 100%) was 0.053. The “reactivity of antiserum with GD3” value [4, 5] was 0.047 and 0.106 and 0.03 and 0.055 and 0.059 and 0.061 and 0.034 and 0.052, the “reactivity of antiserum with GD3” value [4, 6] was 0.026 and 0.057 and 0.024 and 0.052 and 0.034 and 0.027 and 0.017 and 0.039 and the “reactivity of antiserum with GD3” value [4, 7] was 0 (3×) and 0.005 and 0.008 and 0.016 and 0.004 and 0.007. For the same sequence, the “reactivity of antiserum with GD3” value [4, 8] was 0.087 and 0.14 and 0.188 and 0.102 and 0.117 and 0.168 and 0.054 and 0.082, the “reactivity of antiserum with GD3” value [4, 9] was 0.027 and 0.063 and 0.088 and 0.074 and 0.047 and 0.06 and 0.039 and 0.026 and the “reactivity of antiserum with GD3” value [4, 10] was 0.016 and 0.022 and 0.034 and 0.019 (2×) and 0.014 and 0.024 and 0.01. The “reactivity of antiserum with GD3” value [4, 11] was 0.068 and 0.066 and 0.084 (2×) and 0.139 and 0.121 and 0.08 and 0.023, the “reactivity of antiserum with GD3” value [4, 12] was 0.019 and 0.017 and 0.03 (2×) and 0.054 and 0.021 and 0.051 and 0.01 and the “reactivity of antiserum with GD3” value [4, 13] was 0 (2×) and 0.002 and 0.008 and 0.003 (2×) and 0.001 and 0.004.
